Reference: paper PMC8879803, “Identification of a Common Pharmacophore for Binding to MMP2 and RGD Integrin: Towards a Multitarget Approach to Inhibit Cancer Angiogenesis and Metastasis” (Molecules, 2022)

Tests used:
MMP2 = target: T1, MMP2 (Homo sapiens, UniProt P08253); assay: Fluorometric enzyme inhibition assay with fluorogenic substrate Mca-Lys-Pro-Leu-Gly-Leu-Dpa-Ala-Arg-NH2 (MMP2); assay type: biochemical; conditions: for inhibition at 10 µM: 10 μM compound; for inhibition at 10 µM / inhibition at 50 µM / IC50: enzyme 1 nM; for inhibition at 10 µM / inhibition at 50 µM: mean of three assays; for inhibition at 50 µM: 50 μM compound; for IC50: dose-response
T1 sequence (P08253 110-660): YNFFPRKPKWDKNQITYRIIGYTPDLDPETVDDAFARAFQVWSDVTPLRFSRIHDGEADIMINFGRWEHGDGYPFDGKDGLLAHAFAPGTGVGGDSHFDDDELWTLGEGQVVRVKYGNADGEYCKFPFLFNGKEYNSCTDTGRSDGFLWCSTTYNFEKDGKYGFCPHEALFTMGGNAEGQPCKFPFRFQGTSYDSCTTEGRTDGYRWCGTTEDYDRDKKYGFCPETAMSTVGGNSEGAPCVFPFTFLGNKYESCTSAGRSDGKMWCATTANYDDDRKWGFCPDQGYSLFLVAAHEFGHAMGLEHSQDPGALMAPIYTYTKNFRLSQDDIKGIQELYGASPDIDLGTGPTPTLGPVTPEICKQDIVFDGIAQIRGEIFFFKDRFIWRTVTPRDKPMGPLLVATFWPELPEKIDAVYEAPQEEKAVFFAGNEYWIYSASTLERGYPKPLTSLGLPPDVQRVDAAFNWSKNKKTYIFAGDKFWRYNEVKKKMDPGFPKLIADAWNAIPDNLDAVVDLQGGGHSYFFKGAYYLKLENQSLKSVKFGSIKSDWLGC
Method: (§1) For all the compounds showing >50% inhibition activity the IC50 values were obtained by dose-response measurements using an inhibitor range of concentrations (0.01 nM–20 μM) and enzyme concentration equal to 1 nM.
(§2) The inhibition potency of hydroxamic acid derivatives against MMP2 and MMP9 was assayed through a fluorometric assay using the fluorogenic substrate Mca-Lys-Pro-Leu-Gly-Leu-Dpa-Ala-Arg-NH2 (Enzo life science). All the measurements were performed in 96-well plates with a Fluostar Optima microplate reader (BMG Labtech, Ortenberg, Germany). Excitation and emission wavelengths were 320 and 420 nm, respectively. All incubations were performed at 28 °C in 50 mM TrisHCl, 150 mM NaCl, 10 mM CaCl2, 0.05% Brij 35, 1% DMSO at pH 7.5. The inhibitors were pre-incubated with enzymes (1 nM) for 5 min at room temperature before the reaction was started by the addition of the fluorogenic substrate (3 µM). The […] of fluorescence was monitored over 30 min (λex = 320 nm, λem = 420 nm) at 28 °C. The percentages of inhibition for the test compounds were determined through the equation (1 − Vs/Vo) × 100, where vs. is the initial velocity in the presence of the inhibitor and V0 is the initial velocity of the uninhibited reaction. The IC50 values were obtained by dose-response measurements using inhibitor range of concentrations 0.00001–20 μM and enzyme concentration equal to 1 nM. A detergent-based assay was used to determine the presence of promiscuous inhibitors. All the experiments were performed in triplicates and data collected were analyzed using Graphpad 5.0 Software Package (GraphPad Prism Inc., San Diego, CA, USA).

MMP9 = MMP9 (Homo sapiens, UniProt P14780); assay: Fluorometric enzyme inhibition assay with fluorogenic substrate Mca-Lys-Pro-Leu-Gly-Leu-Dpa-Ala-Arg-NH2 (MMP9); assay type: biochemical; conditions: for inhibition at 10 µM: 10 μM compound; for inhibition at 10 µM / inhibition at 50 µM / IC50: enzyme 1 nM; for inhibition at 10 µM / inhibition at 50 µM: mean of three assays; for inhibition at 50 µM: 50 μM compound; for IC50: dose-response
Method: as §1, §2

[1] = target: T2, purified human integrin proteins αvβ3 (Homo sapiens, UniProt P05106+P06756); assay: Solid-phase integrin binding assay (competition with biotinylated vitronectin); conditions: for inhibition at 0.1 µM / inhibition at 1 µM / inhibition at 10 µM: read-out: Inhibition % of biotinylated vitronectin specific binding to αvβ3
T2 construct: purchased Sino Biological Europe GmbH, Eschborn, Germany
Method: As regarding to the binding affinity towards αvβ3, the library was screened using an in vitro solid-phase assays were performed at 10, 1.0 and 0.1 μM concentration of the test compounds for their ability to compete with biotinylated vitronectin for binding to pure αvβ3 integrin isolated from human placenta, and % binding activity is reported in Table 2.
Purified αvβ3 receptors (Sino Biological Europe GmbH, Eschborn, Germany) were diluted to 0.5 μg/mL in coating buffer containing Tris-HCl (20 mmol/L; pH 7.4), NaCl (150 mmol/L), MnCl2 (1 mmol/L), CaCl2 (2 mmol/L) and MgCl2 (1 mmol/L). An aliquot of diluted receptors (100 μL per well) was added to 96-well microtiter plates (MW 96F Medisorp Straight Nunc, Thermo Fischer Scientific, Waltham, MA, USA) and incubated, overnight, at 4 °C. The plates were then incubated with blocking solution (coating buffer plus 5% bovine serum albumin) for an additional 2 h at room temperature to block nonspecific binding followed by 3 h incubation at room temperature with various concentrations of test compounds in the presence of vitronectine (1 μg/mL, Sigma Aldrich, Merck KGaA, Darmstadt, Germany) biotinylated by using EZ-Link Sulfo-NHS-Biotinylation kit (Thermo Fisher, Waltham, MA, USA). After washing, the plates were incubated for 1 h at room temperature with streptavidin–biotinylated peroxidase complex (GE Healthcare, Chicago, IL, USA), followed by 30 min incubation with substrate reagent solution (100 μL; R&D Systems) before stopping the reaction by addition of H2SO4 (2 N, 50 μL). Absorbance at 415 nm was read with a BMG Labtech Fluostar Optima microplate reader. All the experiments were performed in triplicates and data collected were analyzed using the GraphPad 5.0 Software Package.

M21 human melanoma cells = assay: Inhibition of integrin-mediated M21 cell adhesion to vitronectin; assay type: cell-based; conditions: 2 mM MnCl2, relative to vehicle (PBS); for inhibition at 0.3 µM / inhibition at 3 µM / inhibition at 30 µM: Homo sapiens, M21
Method: All the compounds but 17 were also tested for their integrin binding affinity towards M21 human melanoma cells that expresses high levels of αvβ3 heterodimer and using cilengitide as a control. Tests were performed in the presence of 2 mM MnCl2 to switch integrins of tumour cells into an activated form, and at final concentration of the compounds ranging from 30 μM to 0.3 μM (Table 3). […] We were pleased to find that compound 19 maintained a good inhibition potency at 0.3 μM as the lowest concentration used, thus confirming the capacity of this compound to inhibit the binding of M21 melanoma cells to vitronectin as an RGD-containing substrate.
The expression levels of αVβ3 integrin receptors on M21 melanoma cell lines were reported previously. Next, 96 wells plates were coated overnight, at 4 °C, with vitronectin (5 μg/mL in PBS) (V8379 Sigma). Plates were, then washed with phosphate buffered saline (PBS) solution and incubated at 37 °C for 1 h with PBS containing 1% bovine serum albumin (BSA). M21 cells were centrifugated (RT, at 700× g) in PBS, to remove serum. Cells were counted and suspended in serum-free medium at 5.0 × 10^5 cells/mL. Melanoma cell suspensions were pre-incubated with different amounts of the compounds. The final concentration ranged from 30 uM to 0.3 uM, using cilengitide as a control. The incubation was performed at 37 °C for 30 min to allow the ligand-receptor equilibrium to be reached. Next, cells were plated on VN substrata (5–6 × 10^4 cells/well) and incubated at 37 °C for 1 h. The assays were conducted in the presence of 2 mmol/L MnCl2 [26]. At the end of the incubation, plates were washed with PBS to remove the non-adherent cells, and 200 μL of 0.5% crystal violet solution in 20% methanol were added. After 2 h of static incubation at 4 °C, plates were examined at 540 nm in a counter ELX800 (Bio TEK Instruments, Winooski, VT, USA). Experiments were done in triplicate and repeated at least three times. The values are expressed as % inhibition of cell adhesion relative to cells exposed to vehicle alone (PBS).

N=C(N)NCCCOc1ccc(C[C@H](NS(=O)(=O)c2ccc(-c3ccccc3)cc2)C(=O)O)cc1 [Compound 10, (S)-2-([1,1′-Biphenyl]-4-ylsulfonamido)-3-(4-(3-guanidinopropoxy)phenyl)propanoic Acid]
inhibition at 10 µM (MMP2): 16% | inhibition at 50 µM (MMP2): 41% | inhibition at 10 µM (MMP9): 0% | inhibition at 50 µM (MMP9): 0% | inhibition at 0.1 µM [1]: 8% | inhibition at 1 µM [1]: 1% | inhibition at 10 µM [1]: 5% | inhibition at 0.3 µM (M21 human melanoma cells; at 0.3 μM): 43.8% | inhibition at 3 µM (M21 human melanoma cells; at 3 μM): 76.7% | inhibition at 30 µM (M21 human melanoma cells; at 30 μM): 76.9%

NCCCOc1ccc(C[C@H](NS(=O)(=O)c2ccc(-c3ccccc3)cc2)C(=O)O)cc1 [Compound 16, (S)-2-([1,1′-Biphenyl]-4-ylsulfonamido)-3-(4-(3-aminopropoxy)phenyl)propanoic Acid]
IC50 towards MMP2, in words (MMP2): micromolar range | inhibition at 10 µM (MMP2): 60% | inhibition at 50 µM (MMP2): 79% | IC50 (MMP2): 1200 nM | inhibition at 10 µM (MMP9): 0% | inhibition at 50 µM (MMP9): 0% | inhibition at 0.1 µM [1]: 26% | inhibition at 1 µM [1]: 26% | inhibition at 10 µM [1]: 19% | inhibition at 0.3 µM (M21 human melanoma cells; at 0.3 μM): 28% | inhibition at 3 µM (M21 human melanoma cells; at 3 μM): 28.9% | inhibition at 30 µM (M21 human melanoma cells; at 30 μM): 68.5%

c[RGDf(Me)V] [Cilengitide, reference compound]
Inhibition % of M21 cell adhesion to vitronectin (M21 human melanoma cells; at 0.3 μM): 80% | Inhibition % of M21 cell adhesion to vitronectin (M21 human melanoma cells; at 3 μM): 76% | Inhibition % of M21 cell adhesion to vitronectin (M21 human melanoma cells; at 30 μM): 62%

N=C(N)NCCCOc1ccc(C[C@H](NS(=O)(=O)c2ccccc2)C(=O)O)cc1 [Compound 9, (S)-3-(4-(3-Guanidinopropoxy)phenyl)-2-(phenylsulfonamido)propanoic Acid]
inhibition at 10 µM (MMP2): 0% | inhibition at 50 µM (MMP2): 21% | inhibition at 10 µM (MMP9): 0% | inhibition at 50 µM (MMP9): 0% | inhibition at 0.1 µM [1]: 0% | inhibition at 1 µM [1]: 18% | inhibition at 10 µM [1]: 54% | inhibition at 0.3 µM (M21 human melanoma cells; at 0.3 μM): 41.4% | inhibition at 3 µM (M21 human melanoma cells; at 3 μM): 62.5% | inhibition at 30 µM (M21 human melanoma cells; at 30 μM): 75.9%

N=C(N)NCCCOc1ccc(C[C@H](NS(=O)(=O)c2ccccc2)C(=O)NO)cc1 [Compound 18, (S)-3-(4-(3-Guanidinopropoxy)phenyl)-N-hydroxy-2-(phenylsulfonamido)propanamide]
inhibition at 10 µM (MMP2): 52% | inhibition at 50 µM (MMP2): 75% | IC50 (MMP2): 760 nM | inhibition at 10 µM (MMP9): 42% | inhibition at 50 µM (MMP9): 63% | IC50 (MMP9): 1300 nM | inhibition at 0.1 µM [1]: 0% | inhibition at 1 µM [1]: 0% | inhibition at 10 µM [1]: 27% | inhibition at 0.3 µM (M21 human melanoma cells; at 0.3 μM): 44.9% | inhibition at 3 µM (M21 human melanoma cells; at 3 μM): 64.3% | inhibition at 30 µM (M21 human melanoma cells; at 30 μM): 74.1%

O=C(NO)[C@H](Cc1ccc(O)cc1)NS(=O)(=O)c1ccc(-c2ccccc2)cc1 [Compound 21, (S)-2-([1,1′-Biphenyl]-4-ylsulfonamido)-N-hydroxy-3-(4-hydroxyphenyl)propanamide]
inhibition at 10 µM (MMP2): 97% | inhibition at 50 µM (MMP2): 100% | IC50 (MMP2): 37 nM | inhibition at 10 µM (MMP9): 63% | inhibition at 50 µM (MMP9): 73% | IC50 (MMP9): 361 nM | inhibition at 0.1 µM [1]: 20% | inhibition at 1 µM [1]: 12% | inhibition at 10 µM [1]: 2% | inhibition at 0.3 µM (M21 human melanoma cells; at 0.3 μM): 29.7% | inhibition at 3 µM (M21 human melanoma cells; at 3 μM): 28.8% | inhibition at 30 µM (M21 human melanoma cells; at 30 μM): 17.4%

NCCCOc1ccc(C[C@H](NS(=O)(=O)c2ccc([N+](=O)[O-])cc2)C(=O)O)cc1 [Compound 17, (S)-3-(4-(3-Aminopropoxy)phenyl)-2-(4-nitrophenylsulfonamido)propanoic Acid]
inhibition at 10 µM (MMP2): 0% | inhibition at 50 µM (MMP2): 0% | inhibition at 10 µM (MMP9): 0% | inhibition at 50 µM (MMP9): 0% | inhibition at 0.1 µM [1]: 0% | inhibition at 1 µM [1]: 0% | inhibition at 10 µM [1]: 0%

NCCCOc1ccc(C[C@H](NS(=O)(=O)c2ccc(-c3ccccc3)cc2)C(=O)NO)cc1 [Compound 19, (S)-2-([1,1′-Biphenyl]-4-ylsulfonamido)-3-(4-(3-aminopropoxy)phenyl)-N-hydroxypropanamide]
IC50 towards MMP2, in words (MMP2): nanomolar range | inhibition at 10 µM (MMP2): 100% | inhibition at 50 µM (MMP2): 100% | IC50 (MMP2): 55 nM | inhibition at 10 µM (MMP9): 100% | inhibition at 50 µM (MMP9): 100% | IC50 (MMP9): 38 nM | IC50 towards MMP9, in words (MMP9; statement in text (gelatinases)): nanomolar range | inhibition at 0.1 µM [1]: 21% | inhibition at 1 µM [1]: 41% | inhibition at 10 µM [1]: 88% | IC50 ([1]; dose-response assay, read-out: IC50 (αvβ3), inhibition of biotinylated vitronectin binding): 370 nM | inhibition at 0.3 µM (M21 human melanoma cells; at 0.3 μM): 57.8% | inhibition at 3 µM (M21 human melanoma cells; at 3 μM): 35.8% | inhibition at 30 µM (M21 human melanoma cells; at 30 μM): 65.7%
